The values below come from PubChem BioAssay AID179 (DTP/NCI, 2004).

The structures appear in SMILES notation. Activity calls are given as the source filed them.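 The calls were made as follows: active = compounds giving half or more protection of infected cells from virus-caused growth loss, again on retest; inactive = the rest.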 Bounds are passed on as bounds.

This test has as its system CEM cells HIV-1 protection, formazan growth assay. In words: NCI AIDS Antiviral Assay. As to conditions: for IC50: measured here: growth of uninfected CEM cells. The procedure, abridged: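 Five concentrations of each compound were applied to infected and uninfected human CEM cells. Protection from HIV-1 was judged from growth measured with a soluble formazan assay.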

Take `C[N+](C)(CCCn1ccnc1[N+](=O)[O-])CCCn1ccnc1[N+](=O)[O-]`: the EC50 is over 200 µM and the half-inhibitory concentration (IC50) is over 200 µM.
Consider `C/C(=C\CNc1nc(Cl)nc2nc[nH]c12)CO`, for which the EC50 was over 200 µM and the IC50 was 148 µM.
The like results for `Cc1c(C)c2cc3c(cc2oc1=O)OCC3` were, in that order, over 83.2 µM and 55 µM.
In the case of `COC(=O)C(=O)C(/C=N/C(=S)N=Nc1c(O)[nH]c2ccccc12)=C(\O)c1c(C)[nH]c2ccccc12`, the EC50 was 26.9 µM and the IC50 is 105 µM.
As for `Cc1cn(C2CC(N=[N+]=[N-])C(CO[Si](C)(C)C(C)(C)C)O2)c(=O)[nH]c1=O` (configuration not stated), the EC50 was 7.08 µM and the IC50 was 66.1 µM.
As to `O=c1c(SSc2coc3cc(F)ccc3c2=O)coc2cc(F)ccc12`, the EC50 was over 200 µM and the IC50 came to 2.75 µM.
Regarding `CC1(C)OC(=O)C(Cc2ccccc2)(Cc2ccccc2)C(=O)O1`, the outcome was inactive.
In the case of `C/C(CC(O)(C(F)(F)F)C(F)(F)F)=N\N`, the EC50 was over 200 µM and the IC50 was over 200 µM.
Regarding `COC12c3ccccc3-c3ccccc3C1[C@@H](C(=O)O)[C@H]2C(=O)O` (some centres not stated), the EC50 was over 776 µM and the IC50 was over 776 µM.
Regarding `Cc1onc(-c2c(Cl)cccc2Cl)c1C(=O)SC1=NC(C)N2C(SC(=O)c3c(-c4c(Cl)cccc4Cl)noc3C)=NC(C)N12` (configuration not stated), the EC50 is over 19.1 µM and the IC50 amounted to 18.2 µM.
As to `CC(C)(C)OC(=O)Nc1nnc(S(N)(=O)=O)s1`, the EC50 was 182 µM and the IC50 is over 200 µM.
The like results for `CC1=C(C(=O)Nc2ccccc2)C(c2cc(Cl)cc(Cl)c2)C(C(=O)Nc2ccccc2)=C(C)N1` were, in that order, over 14.5 µM and over 14.5 µM.
As for `O=C1C2C3SC(c4c3ccc3ccccc43)C2C(=O)N1c1ccccc1` (configuration not stated), the EC50 is over 2.95 µM and the IC50 is over 2.95 µM.
In the case of `Cc1cc(Cl)ccc1NC(=O)C(=O)C(C(=O)c1ccc2ccccc2c1)C1OC(=O)c2ccccc21` (configuration not stated), the EC50 was over 52.5 µM and the IC50 amounted to 25.1 µM.
For `COc1ccc(C[C@H]2COC(=O)[C@@H]2Cc2ccc(O)c(O)c2)cc1OC`, in that order: over 200 µM and 19.5 µM.
Regarding `CN(O)C(=O)c1ccc(OCc2cccc(Cl)c2)cc1`, the EC50 is over 200 µM and the IC50 came out at 12.6 µM.
`CCOC(=O)C(=[N+]=[N-])C(=O)CSC#N`: the EC50 is over 200 µM and the IC50 came to 10.5 µM.
For `CCOC1NC(=O)NC(=O)C1(C)Cl` (configuration not stated), in that order: over 200 µM and over 200 µM.
With `Cn1[nH]c2[nH]c(=S)sc(=S)c2c1=O`, the EC50 was over 200 µM and the IC50 was over 200 µM.
`CCCCCCCCCCCCCCCCCC(=O)OCC(COC(=O)CCCN)OC(=O)CCCN` (configuration not stated): the result was inactive.
For the molecule `CC1(C(=O)O)CCCC2(C)[C@@H]3CCC4CC3(CC[C@H]12)C[C@@]4(C)O` (some centres not stated), the EC50 was over 200 µM and the IC50 is over 200 µM.
In the case of `CC(=O)OCc1nc2ncnc(N)c2[nH]1`, the EC50 is over 631 µM and the IC50 was over 631 µM.
As for `O=C(Nc1ccc(N=Nc2ccc(S(=O)(=O)O)cc2)cc1)c1ccc(N=Nc2c(S(=O)(=O)O)cc(O)c3c(NC(=O)c4ccccc4)cc(S(=O)(=O)O)cc23)cc1`, the outcome was active.
As to `Cn1ccnc1.Cn1ccnc1.NCCN.[Cl-].[Pt+4]`, the EC50 was over 200 µM and the IC50 was over 200 µM.
As for `O=C1N=C(C=c2ccc(=Cc3[nH]c(=O)n(CN4CCCCC4)c3O)cc2)C(=O)N1CN1CCCCC1`, the EC50 was over 100 µM and the IC50 was 22.4 µM.
On to `COc1cc2c(c(O)c1OC)C(=O)[C@@H]1CCC(=O)N1C2`, for which the EC50 is over 123 µM and the IC50 is 112 µM.
For `c1ccc2[nH]c(CNc3ccc(C4C[Se]N=N4)cc3)nc2c1` (configuration not stated), the EC50 was over 20.4 µM and the IC50 was over 20.4 µM.
For the molecule `N#C/C(=C(/c1ccccc1)c1ccccn1)c1ccc(Cl)cc1`, the EC50 was over 2 µM and the IC50 stood at 1 µM.
As for `CNC(=O)OCc1cc(C(=O)NCCCNCCCNC(=O)c2ccc([N+](=O)[O-])c(COC(=O)NC)c2)ccc1[N+](=O)[O-]`, the result was inactive.
Take `CN(C)[C@@H]1C(=O)C(C(=O)NCN2CCN(C(=N)N=C(N)N)CC2)=C(O)[C@@]2(O)C(=O)C3=C(O)c4c(O)cccc4[C@@](C)(O)[C@H]3C[C@@H]12`: the EC50 is over 37.2 µM and the IC50 was 0.257 µM.
`CCC1(CC)C(=O)NC(=S)N=C1N`: the result was inactive.
On the same count and under the same terms, as for `O=C1OC(Sc2ccccc2)(Sc2ccccc2)c2cccc3cccc1c23`, the entry is “inactive”.
Turning to `CCCCCCCCCCCc1noc2c1C(=O)CCC2`, the EC50 is over 24.5 µM and the IC50 is over 24.5 µM.
With `COc1ccc(C2=C3c4cc(OC)c(OC)cc4CCN3C(=S)SS2)cc1OC`, the outcome was inactive.
Take `Cc1ccnc(NC(=O)Nc2ccc(C)cc2[N+](=O)[O-])c1`: the EC50 was over 200 µM and the IC50 is over 200 µM.
Turning to `COc1ccc(C2[C@@H](Cl)C(=O)N2c2ccc(OC)cc2)cc1` (some centres not stated), the outcome was inactive.
Take `Cc1ccc(S(=O)(=O)ON2C(=O)c3c(N)c(C#N)c(-c4ccccc4)c(-c4ccccc4)c3C2=O)cc1`: the EC50 was over 200 µM and the IC50 was found to be 3.8 µM.
For `O=C(NC(=O)C(Cc1ccccc1)c1ccccc1)C(Cc1ccccc1)c1ccccc1` (configuration not stated), in that order: over 12 µM and over 12 µM.
For `CC1(C)/C(=N\O)C2(OS(=O)(=O)C(F)(F)F)CCC1C2` (configuration not stated), in that order: over 200 µM and over 200 µM.
For the molecule `Cc1ccc(Nc2nc(-c3ccc(-c4ccc([N+](=O)[O-])cc4)o3)cs2)cc1`, the EC50 was over 10 µM and the IC50 was over 10 µM.
As to `COc1ccc(NC(=O)/C(=C\N2C(=O)CC(=O)NC2=S)C(C)=O)cc1`, the EC50 was over 200 µM and the IC50 was found to be 25.7 µM.
For `COc1ccc2nc3cc([N+](=O)[O-])ccc3c(NCCCN(C)C)c2c1`, in that order: over 2 µM and 0.38 µM.
As to `COc1ccc2c(c1)c(=O)c(C(=O)O)cn2CCCOc1ccc([N+](=O)[O-])cc1`, the outcome was inactive.
Regarding `O=C(O)c1ccc(CS(=O)(=O)c2ccc(Cl)cc2)cc1`, the EC50 is over 794 µM and the IC50 was over 794 µM.
Turning to `O=P1(Cc2ccccc2)OC2CC(Cl)CC(C2)O1` (configuration not stated), the EC50 was over 126 µM and the IC50 was over 126 µM.
Take `c1cc(-c2cn3ccsc3n2)ccn1`: the EC50 was over 447 µM and the IC50 was found to be 186 µM.
With `Cc1cc(-c2ccc(N=Nc3ccc4c(S(=O)(=O)O)cc(S(=O)(=O)O)c(N)c4c3O)c(C)c2)ccc1N=Nc1ccc2c(S(=O)(=O)O)cc(S(=O)(=O)O)c(N)c2c1O`, the EC50 is over 9.33 µM.
As for `Cn1c(O)c(N=O)c(=O)[nH]c1=O`, the EC50 is over 200 µM and the IC50 was over 200 µM.
Consider `CS(=O)(=O)OC1CCC2(C#N)CCC1C2=O` (configuration not stated), for which the EC50 was over 1020 µM and the IC50 is over 1020 µM.
In the case of `CC1OC1C(=O)C1(O)C(C)C(O)C23OC2(C(O)c2c(O)cccc2C3=O)C1O` (configuration not stated), the EC50 was over 229 µM and the IC50 turned out to be 0.229 µM.
Turning to `C/C(CCO)=N\NC(N)=S`, the EC50 was over 200 µM and the IC50 is over 200 µM.
In the case of `CCN=C(NC(=O)c1ccccc1F)SCSC(=NCC)NC(=O)c1ccccc1F`, the EC50 is over 200 µM and the IC50 came to 55 µM.
Regarding `C[N+]1=C(c2ccc[nH]2)CC(C(=O)[O-])CC1` (configuration not stated), the EC50 is over 200 µM and the IC50 was over 200 µM.
For `COC(=O)/C(=N\NC(=S)NN)C(C(=O)C(=O)Nc1ccccc1C(N)=O)c1nc2ccccc2[nH]c1=O` (configuration not stated), the EC50 is over 347 µM and the IC50 is over 347 µM.
Turning to `CCn1c(SCC(=O)N/N=C2\SCC(=O)N2c2ccc(C)cc2)nc2ccccc2c1=O`, the EC50 is over 200 µM and the IC50 was 66.1 µM.
As for `Cn1ncc(NCCn2cnc3c2c(=O)n(C)c(=O)n3C)c(Cl)c1=O`, the EC50 is over 200 µM and the IC50 is over 200 µM.
For the molecule `OC1/C(=C/c2ccccc2)CNC/C1=C\c1ccccc1` (configuration not stated), the EC50 is over 129 µM and the IC50 was 79.4 µM.
In turn, `CC(=O)c1c(O)c(C)c(O)c2c1OC1=CC(=O)C(C(C)=O)C(=O)C12C` (configuration not stated) had an EC50 of over 200 µM.
For the molecule `NC(=O)N/N=C/c1ccc(Cl)cc1`, the EC50 was over 132 µM and the IC50 is over 132 µM.
Consider `COc1ccc(N2C(=O)C3c4[nH]c5ccccc5c4C4CCC(c5ccccc5)CC4C3C2=O)cc1` (configuration not stated), for which the EC50 is over 100 µM and the IC50 was over 100 µM.
With `COC(=O)CSSCc1ccc([N+](=O)[O-])cc1`, the EC50 is over 200 µM and the half-maximal inhibitory concentration (IC50) came to 3.47 µM.
Regarding `CCOC(=O)/C=C/c1ccc(C#N)cc1`, the outcome was inactive.
`O=C(CC(C(=O)c1cccs1)c1ccsc1)c1ccsc1` (configuration not stated): the EC50 is over 200 µM and the IC50 turned out to be 11.5 µM.
On to `NS(=O)(=O)c1ccc(NC(=O)Nc2cc(C(F)(F)F)ccc2Cl)cc1`, for which the EC50 is over 200 µM and the IC50 stood at 10.2 µM.
The like results for `COC(=O)c1ncn(C2CCCCC2)c1N` were, in that order, over 200 µM and over 200 µM.
For `Cc1ccc(N=NC2Sc3nc4ccccc4n3C2=O)cc1` (configuration not stated), in that order: over 200 µM and over 200 µM.
The like results for `CCCCCn1cnc2c(=S)nc(N)[nH]c21` were, in that order, over 200 µM and 195 µM.
As for `C[C@]12CC[C@H]3[C@@H](CCC4=CC(=O)C=C[C@@]43O)[C@@H]1CCC2=O`, the EC50 is over 200 µM and the IC50 was over 200 µM.
Regarding `COc1c2c(c3c(c1CCC(=O)O)OC(C)(C)C=C3)OC(C)(C)C=C2`, the EC50 is over 200 µM and the IC50 was 138 µM.
For `CC(C)CCCC(C)C1CCC2C3CC([N+](=O)[O-])=C4CC(O)CCC4(C)C3CCC12C` (configuration not stated), in that order: over 575 µM and 251 µM.
For the molecule `CN(C)c1ccc(/C=C/C(=O)c2ccccc2)cc1`, the EC50 was over 39.8 µM and the half-maximal inhibitory concentration (IC50) stood at 14.8 µM.
`Cc1ccc(N=NC2S/C(=C(\C#N)c3nc4ccccc4[nH]3)N(c3ccccc3)C2=O)cc1` (configuration not stated): the EC50 is over 2.24 µM and the half-inhibitory concentration (IC50) is over 2.24 µM.

A word on the EC50: it is the concentration giving half of the maximal effect. The IC50 is the midpoint of a concentration-inhibition curve. Higher therefore signals weaker potency in that assay.
